Reference: ChEMBL document CHEMBL1909046, “DrugMatrix in vitro pharmacology data”

How the values were obtained:
[1] = molecular target: T1, Muscarinic acetylcholine receptor M4 (Homo sapiens, UniProt P08173); type: cell membranes, CHO-K1, Membrane; note: in other assays of this panel Not Active means under 50% inhibition at 10 µM
T1 sequence (P08173 whole entry): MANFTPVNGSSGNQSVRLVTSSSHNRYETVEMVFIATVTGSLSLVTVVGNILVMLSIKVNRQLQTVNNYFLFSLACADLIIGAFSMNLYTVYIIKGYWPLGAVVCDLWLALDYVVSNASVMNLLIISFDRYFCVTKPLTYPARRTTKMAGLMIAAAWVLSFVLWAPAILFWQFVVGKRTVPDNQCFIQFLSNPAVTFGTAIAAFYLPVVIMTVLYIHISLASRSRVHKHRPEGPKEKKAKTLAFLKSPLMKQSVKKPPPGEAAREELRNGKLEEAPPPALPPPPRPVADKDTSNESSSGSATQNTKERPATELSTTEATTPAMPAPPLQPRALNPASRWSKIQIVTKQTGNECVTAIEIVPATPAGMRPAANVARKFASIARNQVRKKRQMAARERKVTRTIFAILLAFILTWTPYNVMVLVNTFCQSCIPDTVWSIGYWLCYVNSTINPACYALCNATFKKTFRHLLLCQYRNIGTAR

[2] = DRUGMATRIX: GABAA, Chloride Channel, TBOB radioligand binding (ligand: [3H] TBOB); type: cell membranes, Rattus norvegicus, Wistar, Cerebral cortex, Membrane; details: Not Active = under 50% inhibition at 10 µM
Caspase-1 = molecular target: T2, Caspase-1 (Homo sapiens, UniProt P29466); set-up: species or system Escherichia coli;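 note: Caspase-1 enzyme inhibition assay with a peptide substrate; in other assays of this panel Not Active means under 50% inhibition at 10 µM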
T2 sequence (P29466 whole entry): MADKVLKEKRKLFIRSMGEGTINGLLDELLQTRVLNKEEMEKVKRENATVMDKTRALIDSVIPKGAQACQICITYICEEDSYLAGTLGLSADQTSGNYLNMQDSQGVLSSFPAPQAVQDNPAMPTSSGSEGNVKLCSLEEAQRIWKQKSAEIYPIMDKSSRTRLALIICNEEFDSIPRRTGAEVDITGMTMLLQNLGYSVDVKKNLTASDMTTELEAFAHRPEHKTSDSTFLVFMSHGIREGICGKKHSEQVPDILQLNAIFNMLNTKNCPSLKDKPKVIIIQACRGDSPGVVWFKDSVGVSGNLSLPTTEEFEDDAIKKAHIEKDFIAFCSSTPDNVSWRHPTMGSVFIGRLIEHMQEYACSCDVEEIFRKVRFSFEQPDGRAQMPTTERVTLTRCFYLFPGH

[3] = molecular target: Beta-2 adrenergic receptor (Homo sapiens, UniProt P07550); experiment: DRUGMATRIX: Adrenergic beta2 radioligand binding (ligand: [3H] CGP-12177); type: cell membranes, CHO, Membrane; details: cho; Not Active = under 50% inhibition at 10 µM
[4] = DRUGMATRIX: Interleukin IL-1 radioligand binding (ligand: [125I] interleukin 1beta); type: cell membranes, Membrane; details: nih3t3; Not Active = under 50% inhibition at 10 µM
Cytochrome P450 3A4 = Cytochrome P450 3A4 (Homo sapiens, UniProt P08684); details: bti-tn-5b1-4; note: in other assays of this panel Not Active means under 50% inhibition at 10 µM
[5] = DRUGMATRIX: Glutamate, NMDA, Agonism radioligand binding (ligand: [3H] CGP-39653); type: cell membranes, Rattus norvegicus, Wistar, Cerebral cortex, Membrane; details: Not Active = under 50% inhibition at 10 µM

Cytochrome P450 3A4, sequence (P08684 whole entry): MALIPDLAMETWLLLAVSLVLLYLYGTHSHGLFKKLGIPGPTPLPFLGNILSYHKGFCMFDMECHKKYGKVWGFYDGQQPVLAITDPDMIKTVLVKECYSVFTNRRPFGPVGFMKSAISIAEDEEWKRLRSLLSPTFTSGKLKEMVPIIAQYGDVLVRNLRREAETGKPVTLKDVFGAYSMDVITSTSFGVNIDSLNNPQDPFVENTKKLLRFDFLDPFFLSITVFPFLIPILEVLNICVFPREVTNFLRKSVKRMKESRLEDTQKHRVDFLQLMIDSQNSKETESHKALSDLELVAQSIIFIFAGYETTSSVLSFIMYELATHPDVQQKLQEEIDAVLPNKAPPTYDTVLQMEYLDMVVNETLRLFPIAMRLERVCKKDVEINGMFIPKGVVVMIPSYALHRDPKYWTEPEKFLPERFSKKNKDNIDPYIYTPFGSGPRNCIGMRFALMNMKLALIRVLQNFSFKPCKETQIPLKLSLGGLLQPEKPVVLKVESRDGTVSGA

Row | Molecule | IC50 ([1]; cho-k1) | IC50 [2] | Ki [2] | IC50 (Caspase-1) | IC50 [3] | IC50 [4] | Ki [4] | IC50 (Cytochrome P450 3A4) | Ki (Cytochrome P450 3A4) | IC50 [5] | Ki [5] | IC50 ([1]; read-out: IC50) [nM] | Ki ([1]; read-out: Ki) [nM] | IC50 ([2]; read-out: IC50) [nM] | Ki ([2]; read-out: Ki) [nM] | Ki ([1]; cho-k1) | Ki (Caspase-1) | Ki [3]
1 | NC(=O)NC(=O)Cc1ccccc1 [PHENACEMIDE] | Not Active | Not Active | Not Active | Not Active | Not Active | Not Active | Not Active | Not Active | Not Active | Not Active | Not Active | – | – | – | – | – | – | –
2 | Cc1cc(C(C)(C)C)c(O)c(C)c1CC1=NCCN1 [OXYMETAZOLINE] | – | Not Active | Not Active | Not Active | Not Active | Not Active | Not Active | Not Active | Not Active | Not Active | Not Active | 3260 | 455 | – | – | – | – | –
3 | CC(CN1c2ccccc2Sc2ccccc21)N(C)C (configuration not stated) [PROMETHAZINE] | – | Not Active | Not Active | Not Active | Not Active | Not Active | Not Active | Not Active | Not Active | Not Active | Not Active | 7.58 | 1.06 | – | – | – | – | –
4 | NC(N)=Nc1nc(CSCCC(N)=NS(N)(=O)=O)cs1 [FAMOTIDINE] | Not Active | Not Active | Not Active | Not Active | Not Active | Not Active | Not Active | Not Active | Not Active | Not Active | Not Active | – | – | – | – | – | – | –
5 | C[C@]12CC[C@@H](O)C[C@@H]1CC[C@@H]1[C@@H]2CC[C@]2(C)C(=O)CC[C@@H]12 [ANDROSTERONE] | Not Active | Not Active | Not Active | Not Active | Not Active | Not Active | Not Active | Not Active | Not Active | Not Active | Not Active | – | – | – | – | – | – | –
6 | ClC1=C(Cl)[C@]2(Cl)[C@@H]3[C@@H]4C[C@@H]([C@H]5O[C@@H]45)[C@@H]3[C@@]1(Cl)C2(Cl)Cl [DIELDRIN] | Not Active | – | – | Not Active | Not Active | Not Active | Not Active | Not Active | Not Active | Not Active | Not Active | – | – | 335 | 300 | – | – | –
7 | CC(=O)[C@]1(O)Cc2c(O)c3c(c(O)c2[C@@H](O[C@H]2C[C@H](N)[C@H](O)[C@H](C)O2)C1)C(=O)c1ccccc1C3=O [IDARUBICIN] | Not Active | Not Active | Not Active | Not Active | Not Active | Not Active | Not Active | Not Active | Not Active | Not Active | Not Active | – | – | – | – | – | – | –
8 | COC(=O)Nc1nc2ccc(Sc3ccccc3)cc2[nH]1 [FENBENDAZOLE] | Not Active | Not Active | Not Active | Not Active | Not Active | Not Active | Not Active | Not Active | Not Active | Not Active | Not Active | – | – | – | – | – | – | –
9 | Cc1ccnc2c1NC(=O)c1cccnc1N2C1CC1 [NEVIRAPINE] | Not Active | Not Active | Not Active | Not Active | Not Active | Not Active | Not Active | Not Active | Not Active | Not Active | Not Active | – | – | – | – | – | – | –
10 | COPPER(II) OXIDE | Not Active | Not Active | Not Active | Not Active | Not Active | Not Active | Not Active | Not Active | Not Active | Not Active | Not Active | – | – | – | – | Not Active | Not Active | Not Active
11 | OC[C@H]1O[C@@H]2O[C@H]3[C@H](O)[C@@H](O)[C@@H](O[C@H]4[C@H](O)[C@@H](O)[C@@H](O[C@H]5[C@H](O)[C@@H](O)[C@@H](O[C@H]6[C@H](O)[C@@H](O)[C@@H](O[C@H]7[C@H](O)[C@@H](O)[C@@H](O[C@H]8[C@H](O)[C@@H](O)[C@@H](O[C@H]1[C@H](O)[C@H]2O)O[C@@H]8CO)O[C@@H]7CO)O[C@@H]6CO)O[C@@H]5CO)O[C@@H]4CO)O[C@@H]3CO [BETADEX] | Not Active | Not Active | Not Active | Not Active | Not Active | Not Active | Not Active | Not Active | Not Active | Not Active | Not Active | – | – | – | – | – | – | –
12 | O=C(O)CO [GLYCOLIC ACID] | Not Active | Not Active | Not Active | Not Active | Not Active | Not Active | Not Active | Not Active | Not Active | Not Active | Not Active | – | – | – | – | – | – | –
13 | COc1cc(NC(C)CCCN)c2ncccc2c1 (configuration not stated) [PRIMAQUINE] | Not Active | Not Active | Not Active | Not Active | Not Active | Not Active | Not Active | Not Active | Not Active | Not Active | Not Active | – | – | – | – | – | – | –
14 | CCO [ALCOHOL] | Not Active | Not Active | Not Active | Not Active | Not Active | Not Active | Not Active | Not Active | Not Active | Not Active | Not Active | – | – | – | – | – | – | –
15 | CC(C)(c1ccc(O)cc1)c1ccc(O)cc1 [BISPHENOL A] | Not Active | Not Active | Not Active | Not Active | Not Active | Not Active | Not Active | Not Active | Not Active | Not Active | Not Active | – | – | – | – | – | – | –
16 | CC12CCC(CC1=O)C2(C)C (configuration not stated) [CAMPHOR] | Not Active | Not Active | Not Active | Not Active | Not Active | Not Active | Not Active | Not Active | Not Active | Not Active | Not Active | – | – | – | – | – | – | –
17 | O=C(O)c1ccccc1 [BENZOIC ACID] | Not Active | Not Active | Not Active | Not Active | Not Active | Not Active | Not Active | Not Active | Not Active | Not Active | Not Active | – | – | – | – | – | – | –
18 | Oc1ncnc2[nH]ncc12 [ALLOPURINOL] | Not Active | Not Active | Not Active | Not Active | Not Active | Not Active | Not Active | Not Active | Not Active | Not Active | Not Active | – | – | – | – | – | – | –
19 | NC(=O)CN1CCCC1=O | Not Active | Not Active | Not Active | Not Active | Not Active | Not Active | Not Active | Not Active | Not Active | Not Active | Not Active | – | – | – | – | – | – | –
20 | C=CCO [ALLYL ALCOHOL] | Not Active | Not Active | Not Active | Not Active | Not Active | Not Active | Not Active | Not Active | Not Active | Not Active | Not Active | – | – | – | – | – | – | –
21 | CCN1CCN(C(=O)N[C@@H](C(=O)N[C@@H]2C(=O)N3[C@@H]2SC(C)(C)[C@@H]3C(=O)O)c2ccccc2)C(=O)C1=O [PIPERACILLIN] | Not Active | Not Active | Not Active | Not Active | Not Active | Not Active | Not Active | Not Active | Not Active | Not Active | Not Active | – | – | – | – | – | – | –
22 | CCCCCCNC(=O)n1cc(F)c(=O)[nH]c1=O [CARMOFUR] | Not Active | Not Active | Not Active | Not Active | Not Active | Not Active | Not Active | Not Active | Not Active | Not Active | Not Active | – | – | – | – | – | – | –
